From paper PMC10641921, “Optimization of mTOR Inhibitors Using Property-Based Drug Design and Free–Wilson Analysis for Improved In Vivo Efficacy” (ACS Medicinal Chemistry Letters, 2023)
pIC50: −log10 of the molar value. Like-named read-outs stand apart in the source and are kept apart here.

Experiments:
PI3Kα = PI3Kα enzyme selectivity (PI3Kα IC50 over mTOR IC50); format: biochemical; conditions: ratio of PI3Kα enzyme IC50 over mTOR enzyme IC50
[1] = system: pAKT-S473 in PC-3 cells (TORC2); assay: Cellular p-AKT (ser473) AlphaScreen assay in PC-3 cells (TORC2 activity); format: cell-based, human
Method: The target product profile for 1 and the next-generation analogs described here was for a dual inhibitor against both TORC1 and TORC2.
FRAP1 (mTOR) recombinant protein and GFP-4E-BP1 were purchased from Invitrogen (Carlsbad, CA, US).
The kinase activity assay was conducted in 50 mM Hepes buffer containing 10 mM MgCl2, 0.01% Brij, 0.2 mM EDTA, 2 mM DTT and 1% DMSO (after compound addition) at pH 7.3.
The IC50 value for each compound was determined in the presence of compound (various concentrations, from 0 to 10 μM) and a fixed amount of ATP (50 μM, final concentration), substrate GFP-4E-BP1 (400 nM, final concentration). The enzymatic reaction was initiated by adding FRAP1 (mTOR) (2 nM, final concentration). The assay was conducted at room temperature (~22 °C). After 30 min, the enzymatic reaction was stopped using Tb-anti-p4E-BP1 (2 nM final concentration, Invitrogen) and EDTA (20 mM final concentration, Sigma) in TR-FRET dilution buffer provided by Invitrogen. All the reagents were dispensed using a Multidrop Combi reagent dispenser (ThermoFisher Scientific, Waltham, […]
The release of product was detected using a BMG PHERAstar plate reader (BMG LABTECH, Ortenberg, Germany) and the Lantha Screen module (337 nm excitation wavelength) and measuring the ratio of fluorescence 520/490 nm (emission wavelengths). Experimental data was fitted using Eq. (1):
Vi and Vo are the rates of the enzyme activity in the presence and in the absence of inhibitor; n is the Hill coefficient; I is the free inhibitor concentration; IC 50 is a measure of potency that is equivalent to a […]
Cellular p-AKT (ser473) assay in PC-3 cells
PC-3 cells (PTEN deleted, human prostate cell line) were maintained in F12K media with 10% heat-inactivated fetal bovine serum (FBS) in 37 °C, 5% CO2 incubator. This method describes the procedure […]
from Perkin Elmer (catalog# TGRAS500). On day 1, 50,000 PC-3 cells were plated in 160 µL complete […]
Plates were placed in 37 °C, 5%
CO2 incubator for 24 h. On day 2, all media was removed and replaced with 160 µL starvation media which is F12K media (no FBS) and 0.1% BSA. Plates are placed in 37 °C, 5% CO2 incubator for 16 h. On day 3, compounds were both solubilized and serially diluted in DMSO and added to a secondary plate containing starvation media. 40 µL of compound/starvation media were added to the 160 µL in cell plate and plates were placed back in the incubator for 1 h. Cells were then activated by adding 22 µL FBS (for a final concentration of 10% FBS) for 10 min in the incubator. Media was removed from the well and cells were lysed in 100 µL SureFire kit lysis buffer and then shake n for 15 min at 900 rpm. AlphaScreen […]
assay was performed according to manufacturer’s instructions. 4 µL of lysate was added to PerkinElmer 96-well Proxiplate then 5 µL of Reaction Buffer plus Activation Buffer. Plates were shaken for 2 h at room temperature. 2 µL of Donor Beads in Dilution Buffer were added to the plate and the plate was shaken for 2 h at room temperature. The plate was read using BMG Labtech PHERAstar using AlphaScreen settings. Each analog was run in duplicate wells and a single IC50 value was calculated in […]

[2] = Human liver microsome intrinsic clearance; format: in vitro ADME; conditions: apparent intrinsic clearance, scaled
[3] = system: CYP 2C8, 1A2, 2C9, 2C19, 2D6 and 3A4; assay: CYP inhibition, all isoforms tested; format: in vitro ADME; conditions: human
From the text: We also desired to remove the aniline structural alert present in the aryl urea moiety, which has been associated with idiosyncratic adverse drug reactions.[16]

Rat PK (iv and po) = format: in vivo; conditions: for bioavailability: in vivo, 4 mg/kg
From the text: This was an early indication that the strategy of increasing potency while lowering lipophilicity would allow us to meet our goal of improving prospects for favorable PK and dose.

CYP2C8 = biological target: T1, CYP2C8 (Homo sapiens, UniProt P10632); assay: CYP inhibition, 2C8; format: in vitro ADME; conditions: most potently inhibited CYP isoform
T1 sequence (P10632 1-490): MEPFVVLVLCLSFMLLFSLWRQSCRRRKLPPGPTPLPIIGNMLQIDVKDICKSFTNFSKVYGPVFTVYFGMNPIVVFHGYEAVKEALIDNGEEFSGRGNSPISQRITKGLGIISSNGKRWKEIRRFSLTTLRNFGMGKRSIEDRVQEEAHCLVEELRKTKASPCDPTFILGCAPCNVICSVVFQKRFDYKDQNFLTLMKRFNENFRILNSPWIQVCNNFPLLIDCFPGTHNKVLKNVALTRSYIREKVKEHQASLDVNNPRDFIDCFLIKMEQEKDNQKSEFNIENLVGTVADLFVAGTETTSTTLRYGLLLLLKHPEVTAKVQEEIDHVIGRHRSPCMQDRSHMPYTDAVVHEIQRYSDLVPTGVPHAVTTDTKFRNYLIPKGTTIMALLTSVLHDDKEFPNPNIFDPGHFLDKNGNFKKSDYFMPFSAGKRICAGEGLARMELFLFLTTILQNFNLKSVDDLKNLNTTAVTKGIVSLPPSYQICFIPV

[4] = Homo sapiens, PC-3, PC-3 cell line, read-out: pAKT S473 Cell IC50
[5] = Homo sapiens, p-AKT S473, PC-3 cells, mean of N runs, read-out: Cell pEC50 (converted)
[6] = PC-3 cell line, read-out: pAKT S473 Cell IC50
[7] = iv 1 mpk, po 4 mpk in 0.5% methylcellulose
[8] = Homo sapiens, PC-3, read-out: Cell pEC50 (converted)
[9] = Homo sapiens, PC-3, read-out: pAKT S473 Cell IC50

Structure (SMILES) | PI3Kα Sel (PI3Kα) | pIC50 [1, 4] | EC50 [1, 5] | HLM Clint [2] | PI3Kα Sel (PI3Kα; Table 2, unit not given) | other results
C[C@@]12COCCN1c1nc(-c3ccc(NC(=O)NC4CC4)cc3)ncc1N(CC1CC1)C2=O [3a] | 100x | 7.42 | 38 nM | – | – | –
C[C@@]12COCCN1c1nc(-c3cnc4[nH]ccc4c3)ncc1N(CC1CC1)C2=O [3b] | 48x | 7.29 | 51.3 nM | – | – | –
C[C@@]12COCCN1c1nc(-c3cnc4cc[nH]c4c3)ncc1N(CC1CC1)C2=O [3c] | 26x | 7.04 | 91.2 nM | – | – | –
C[C@@]12COCCN1c1nc(-c3ccc(NC(=O)NC4CC4)cc3)ncc1N(C1CCOCC1)C2=O [4a] | 63x | 7.38 | 41.7 nM | – | – | –
C[C@@]12COCCN1c1nc(-c3cnc4[nH]ccc4c3)ncc1N(C1CCOCC1)C2=O [4b] | 23x | 7.21 | 61.7 nM | 6 mL min^–1 kg^–1 | 23 | –
C[C@@]12COCCN1c1nc(-c3cnc4cc[nH]c4c3)ncc1N(C1CCOCC1)C2=O [4c] | 13x | 7.00 | 105 nM | – | – | –
C[C@@]12COCCN1c1nc(-c3c[nH]c4ccccc34)ncc1N(C1CCOCC1)C2=O [4d] | 120x | ≥ 7.52 | 29.5 nM | – | – | pIC50 [1, 6]: 7.52
C[C@@]12COCCN1c1nc(-c3cccc4[nH]ccc34)ncc1N(C1CCOCC1)C2=O [4e] | 110x | ≥ 7.52 | 21.4 nM | 10 mL min^–1 kg^–1 | 110 | pIC50 [3]: < 4.40; bioavailability (Rat PK (iv and po); [7]): 91%; Cl (Rat PK (iv and po); iv 1 mpk): 15 mL min^–1 kg^–1; pIC50 [1, 6]: 7.68
C[C@@]12COCCN1c1nc(-c3cncc4[nH]ccc34)ncc1N(C1CCOCC1)C2=O [4f] | 84x | 7.77 | 16.6 nM | – | – | –
Cc1ccc(-c2ncc3c(n2)N2CCOC[C@@]2(C)C(=O)N3C2CCOCC2)c2cc[nH]c12 [4g] | 450x | 7.59 | 25.7 nM | – | – | –
Cc1ncc(-c2ncc3c(n2)N2CCOC[C@@]2(C)C(=O)N3C2CCOCC2)c2cc[nH]c12 [4h] | 270x | 7.32 | 47.9 nM | – | – | –
Cc1cccc2c(-c3ncc4c(n3)N3CCOC[C@@]3(C)C(=O)N4C3CCOCC3)c[nH]c12 [4i] | 640x | 8.05 | 8.71 nM | – | – | pIC50 (CYP2C8): 6.00
C[C@@]12COCCN1c1nc(-c3cnc4[nH]ccc4c3)ncc1N(C1CCOC1)C2=O (stereo partly shown) [13a] | – | 7.13 | 74.1 nM | 12 mL min^–1 kg^–1 | 5 | –
COCCCN1C(=O)[C@]2(C)COCCN2c2nc(-c3cnc4[nH]ccc4c3)ncc21 [13b] | – | 7.24 | 57.5 nM | 32 mL min^–1 kg^–1 | 9 | –
C[C@@]12COCCN1c1nc(-c3cnc4[nH]ccc4c3)ncc1N(CCCO)C2=O [13c] | – | 6.77 | 170 nM | 9 mL min^–1 kg^–1 | 9 | –
C[C@@]12COCCN1c1nc(-c3cnc4[nH]ccc4c3)ncc1N(C1(CCO)CC1)C2=O [13d] | – | 7.21 | 61.7 nM | 11 mL min^–1 kg^–1 | 59 | –
C[C@@]12COCCN1c1nc(-c3cnc4[nH]ccc4c3)ncc1N(C1CCN(S(C)(=O)=O)CC1)C2=O [13e] | – | – | – | 6 mL min^–1 kg^–1 | 14 | EC50 [1, 8]: 120 nM; pIC50 [1, 9]: 6.92
CC(=O)N1CCC(N2C(=O)[C@]3(C)COCCN3c3nc(-c4cccc5[nH]ccc45)ncc32)CC1 [14a] | – | – | – | 6 mL min^–1 kg^–1 | 120 | EC50 [1, 8]: 55 nM; pIC50 [1, 9]: 7.26
C[C@@]12COCCN1c1nc(-c3cccc4[nH]ccc34)ncc1N([C@H]1CC[C@@H](O)CC1)C2=O [14b] | – | 7.85 | 14.1 nM | 6 mL min^–1 kg^–1 | 110 | frac. abs. (Rat PK (iv and po); estimated from %F, Cl and Qh = 70 mL min^–1 kg^–1): 100%; bioavailability (Rat PK (iv and po); [7]): 100%; Cl (Rat PK (iv and po); iv 1 mpk): 11 mL min^–1 kg^–1; Vd (Rat PK (iv and po); iv 1 mpk): 3.9 L/kg; Cmax (Rat PK (iv and po); po 4 mpk in 0.5% methylcellulose): 1400 nM; PI3Ka sel. (PI3Kα): 110 ×; pIC50 (CYP2C8): 5.40
Cc1cccc2c(-c3ncc4c(n3)N3CCOC[C@@]3(C)C(=O)N4[C@H]3CC[C@H](O)CC3)c[nH]c12 [15b] | – | – | – | 7 mL min^–1 kg^–1 | – | pIC50 (CYP2C8): 5.52
Cc1ccc(-c2ncc3c(n2)N2CCOC[C@@]2(C)C(=O)N3[C@H]2CC[C@@H](O)CC2)c2cc[nH]c12 [15c] | – | – | – | 8 mL min^–1 kg^–1 | – | pIC50 (CYP2C8): 5.52
Cc1cccc2c(-c3ncc4c(n3)N3CCOC[C@@]3(C)C(=O)N4[C@H]3CC[C@@H](O)CC3)c[nH]c12 [15d] | – | – | – | 7 mL min^–1 kg^–1 | – | pIC50 (CYP2C8): 6.10
Cc1cccc2c(-c3ncc4c(n3)N3CCOC[C@@]3(C)C(=O)N4C3(CCO)CC3)c[nH]c12 [15e] | – | – | – | 6 mL min^–1 kg^–1 | – | pIC50 (CYP2C8): 5.89; EC50 [1, 8]: 4.57 nM; pIC50 ([1]; Homo sapiens, PC-3, read-out: pAKT S473 Cell IC50, PC-3 cell line): 8.30
